These results are taken from BindingDB's records for doi:10.1158/1535-7163.MCT-06-0397 (Loma Linda University, 2007).

The experiment deals with Serine/threonine-protein kinase pim-1 (Homo sapiens, UniProt P11309). In words: Solid-Phase ELISA Kinase Assay. To be noted: pH 7; 30 °C. Here is the method: The 96-well flat-bottomed plates were coated with recombinant GST-BAD. After the plates were blocked, the reaction buffer containing test compound and recombinant GST-PIM1 kinase were added to each well. Phosphorylated GST-BAD was detected by an ELISA reaction. The level of phosphorylated GST-BAD present was proportional to the absorbance at 450 nm. Curve fitting and enzyme analyses were done using GraphPad Prism version 4.00 (GraphPad Software, San Diego, CA).
Sequence of Serine/threonine-protein kinase pim-1 (P11309 whole entry): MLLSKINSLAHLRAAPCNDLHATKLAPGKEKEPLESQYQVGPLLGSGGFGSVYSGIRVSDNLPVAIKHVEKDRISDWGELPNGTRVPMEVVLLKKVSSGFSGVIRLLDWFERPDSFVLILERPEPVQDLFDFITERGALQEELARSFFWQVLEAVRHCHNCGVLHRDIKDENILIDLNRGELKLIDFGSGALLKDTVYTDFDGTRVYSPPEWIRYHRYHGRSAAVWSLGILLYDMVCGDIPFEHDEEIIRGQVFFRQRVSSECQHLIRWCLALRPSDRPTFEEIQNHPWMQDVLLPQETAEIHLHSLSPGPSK
As usually defined, the IC50 is the concentration that inhibits the measured activity by half. Higher therefore signals lower potency. The molecule `O=c1cc(-c2ccc(O)c(O)c2)oc2cc(O)cc(O)c12` [2-(3,4-dihydroxyphenyl)-5,7-dihydroxy-4H-chromen-4-one] registered an IC50 of 1.6 µM.

As to `O=c1c(O)c(-c2ccc(O)cc2)oc2cc(O)cc(O)c12`, the half-maximal inhibitory concentration (IC50) stood at 1.3 µM.

Take `O=c1c(O)c(-c2cc(O)c(O)c(O)c2)oc2cc(O)cc(O)c12`: the IC50 is 0.78 µM.

`O=C1C[C@H](c2ccccc2)Oc2cc(O)cc(O)c21` [(2R)-5,7-dihydroxy-2-phenyl-3,4-dihydro-2H-1-benzopyran-4-one] yielded a 50% inhibitory concentration (IC50) of 60.2 µM.

`O=c1c(O)c(-c2ccc(O)c(O)c2)oc2cc(O)ccc12` [2-(3,4-dihydroxyphenyl)-3,7-dihydroxy-chromen-4-one] gave a half-maximal inhibitory concentration (IC50) of 0.85 µM. This IC50 is about 71-fold lower than that of the molecule before.

The molecule `O=c1cc(-c2cccc(O)c2)oc2cc(O)ccc12` [7-hydroxy-2-(3-hydroxyphenyl)-4H-chromen-4-one] came in with an IC50 of 4.52 µM.

`CC(C)=CCc1c(O)cc(O)c2c1O[C@H](c1ccccc1)CC2=O` [(2S)-5,7-dihydroxy-8-(3-methylbut-2-en-1-yl)-2-phenyl-3,4-dihydro-2H-1-benzopyran-4-one] had an IC50 of 12.5 µM.

`O=c1cc(-c2ccc(O)cc2)oc2c(O)c(O)ccc12` came in with an IC50 of 22 µM. Compared with the last molecule, the IC50 is about 1.8-fold higher.

`O=c1cc(-c2ccccc2)oc2cc(O)cc(O)c12` [5,7-dihydroxy-2-phenyl-4H-chromen-4-one] returned an IC50 of 15 µM.

`O=c1c(O)c(-c2ccc(O)cc2O)oc2cc(O)cc(O)c12` [2-(2,4-dihydroxyphenyl)-3,5,7-trihydroxychromen-4-one]: half-maximal inhibition (IC50) required 2.7 µM.

As for `O=c1c(O)c(-c2ccc(O)cc2)oc2cc(O)ccc12` [3,7-dihydroxy-2-(4-hydroxyphenyl)-4H-chromen-4-one], half-maximal inhibition (IC50) was put at 0.98 µM.

Take `O=c1c(O)c(-c2ccc(O)cc2O)oc2ccc(O)cc12` [2-(2,4-dihydroxyphenyl)-3,6-dihydroxy-4H-chromen-4-one]: the IC50 is 8.3 µM.

The molecule `O=C1C[C@@H](c2ccccc2)Oc2cc(O)cc(O)c21` had an IC50 of 107 µM.

`O=c1cc(-c2ccc(O)cc2)oc2cc(O)cc(O)c12` [Naringenin, 18] gave a concentration for half-maximal inhibition (IC50) of 0.94 µM.

Molecule `O=c1c(O)c(-c2ccccc2)oc2cc(O)ccc12` [3,7-dihydroxy-2-phenyl-4H-chromen-4-one] displayed an IC50 of 4.6 µM. Compared with the last molecule, the IC50 is about 4.9-fold higher.

In the case of `O=c1cc(-c2ccccc2)oc2cc(O)ccc12` [7-Hydroxy-flavone, 5a], the IC50 came to 14 µM.

The molecule `O=c1c(O)c(-c2ccc(O)c(O)c2)oc2c(O)c(O)cc(O)c12` showed an IC50 of 0.43 µM.

The molecule `O=c1cc(-c2cc(O)c(O)c(O)c2)oc2cc(O)ccc12` [7-hydroxy-2-(3,4,5-trihydroxyphenyl)-4H-chromen-4-one] gave an IC50 of 7.8 µM.
